Data published in patent EP0737689A1, “NOVEL 6-SUBSTITUTED OXA- OR […]” (TEIKOKU HORMONE MFG. CO., LTD., priority 1993, dated 1995).

Columns and labels:
[1] = molecular target: T1, aromatase (Homo sapiens, UniProt P11511); assay: Assay of aromatase inhibition action (in vitro), 3H2O release from [1β-3H]androstenedione; format: biochemical; conditions: freeze dried human placental microsomes, 2 µM [1β-3H]androstenedione, 180 µM NADPH, pH 7.5, 37°C, 20 minutes
T1 construct: Human placental microsomes (ones subjected to centrifugation at 105,000 X g for 60 minutes) were prepared according to the method of Ryan; from tissue; host or cells: human placenta (microsomal fraction)
T1 sequence (P11511 1-503): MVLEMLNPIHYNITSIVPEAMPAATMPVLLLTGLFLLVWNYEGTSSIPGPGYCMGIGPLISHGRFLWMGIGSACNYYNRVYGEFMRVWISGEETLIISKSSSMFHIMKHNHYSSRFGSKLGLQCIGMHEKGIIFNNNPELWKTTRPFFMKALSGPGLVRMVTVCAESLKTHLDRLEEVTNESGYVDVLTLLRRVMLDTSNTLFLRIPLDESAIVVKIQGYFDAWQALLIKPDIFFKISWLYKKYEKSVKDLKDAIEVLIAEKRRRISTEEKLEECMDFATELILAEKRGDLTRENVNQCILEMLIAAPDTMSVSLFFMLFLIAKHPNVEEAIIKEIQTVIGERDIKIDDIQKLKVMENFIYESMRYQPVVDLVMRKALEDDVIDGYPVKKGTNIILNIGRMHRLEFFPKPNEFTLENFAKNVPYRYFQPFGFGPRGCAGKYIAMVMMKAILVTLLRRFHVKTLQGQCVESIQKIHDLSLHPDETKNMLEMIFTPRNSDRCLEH
Procedure: Human placental microsomes (ones subjected to centrifugation at 105,000 X g for 60 minutes) were prepared according to the method of Ryan (The Journal of Biological Chemistry 234, 268-272, 1959). The microsomes were washed twice with 0.5 mM dithiothreitol solution, freeze dried, and stored at -20°C until use.
An aromatase inhibition action was assayed according to the method developed by Tompson and Siiteri (The Journal of Biological Chemistry 249, 5373-5378, 1974). Namely, the method comprises quantitatively determining ^3H2O released when [1β-^3H]androstenedione is aromatized. The experiment, when the enzyme was used, was conducted in 67 mM phosphate buffer (pH 7.5) so that the amount of the final incubation solution could be 0.5 ml. The incubation solution contains 180 µM of NADPH, 2 µM of [1β-^3H]androstenedione, 150 µg of freeze dried human placental microsomes, 25 µl of methanol and a test compound at various concentrations. Incubation was conducted in the air at 37°C for 20 minutes, 3 ml of chloroform was added to discontinue the reaction, and then the mixture was stirred for 40 seconds. The mixture was then centrifuged at 700 X g for 10 minutes, 0.3 ml of the aqueous solution was sampled from the supernatant, the scintillation mixture was added, and the amount of ^3H2O formed was measured.

[2] = molecular target: T2, aromatase (Rattus norvegicus, UniProt P22443); assay: Assay of aromatase inhibition action (in vivo), inhibition of DHEAS-induced cornification of the vaginal smear; conditions: orally once a day for 4 days, hypophysectomized mature female rats, 16 mg/kg DHEAS, cornification relative to solvent administration group
T2 construct: mature female rats after one week from hypophysectomy were used; from tissue; host or cells: whole animal (hypophysectomised mature female rats)
T2 sequence (P22443 1-508): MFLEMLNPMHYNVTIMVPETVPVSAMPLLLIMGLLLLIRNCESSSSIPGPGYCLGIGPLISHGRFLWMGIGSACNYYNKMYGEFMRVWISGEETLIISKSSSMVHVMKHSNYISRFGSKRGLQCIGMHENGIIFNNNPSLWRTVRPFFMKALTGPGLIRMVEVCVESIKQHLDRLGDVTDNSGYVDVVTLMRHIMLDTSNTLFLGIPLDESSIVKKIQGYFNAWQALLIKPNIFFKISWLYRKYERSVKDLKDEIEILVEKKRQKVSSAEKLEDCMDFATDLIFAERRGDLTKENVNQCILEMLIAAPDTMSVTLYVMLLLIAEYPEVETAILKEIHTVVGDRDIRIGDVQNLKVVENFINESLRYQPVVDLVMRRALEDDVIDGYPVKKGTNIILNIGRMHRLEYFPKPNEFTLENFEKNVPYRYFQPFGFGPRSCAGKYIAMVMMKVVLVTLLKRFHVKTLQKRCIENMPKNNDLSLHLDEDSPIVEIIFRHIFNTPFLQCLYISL
Procedure: An aromatase inhibition action was assayed according to the method developed by G.H.Deckers and A.H.W.M.Schuurs (Journal of Steroid Biochemistry 32, 625-631, 1989).
Namely, mature female rats after one week from hypophysectomy were used with one group of 8 to 10 animals. Either 16 mg/kg of dehydroepiandrosterone sulfate (DHEAS) and 5 ml/kg of a solvent (physiological saline containing 2 % polysorbate 80), or DHEAS and a test compound suspended in the solvent were orally administered once a day for successive 4 days. For 6 days from the next day of start of the administration, the vaginal smear was sampled, and observed under a microscope after being stained with Giemsa staining solution. Cornification of the vaginal smear due to DHEAS was observed from 3 days after the initial administration, and its action disappeared 6 days thereafter. Therefore, the cornification smear number was expressed as the total of from the third day to the fifth day from the start of administration. An cornification inhibition action by the test compound was expressed as a rate to cornification in the solvent administration group.
Since cornification of the vaginal smear is caused by estrogens biosynthetically produced from DHEAS by aromatase, inhibition of the cornification is observed when aromatase is inhibited.

| SMILES | IC50 [1] | Inhibition rate (%) ([2]; dose 5 mg/kg/day) | Inhibition rate (%) ([2]; dose 2 mg/kg/day) |
| --- | --- | --- | --- |
| CS[C@@H]1C[C@H]2[C@@H]3CCOC[C@@]3(C)CC[C@@H]2[C@@]2(C)C=CC(=O)C=C12 [Example 10, 6β-(methylthio)-D-homo-17-oxaandrosta-1,4-dien-3-one] | 800 nM | – | – |
| C[C@]12C=CC(=O)C=C1[C@@H](SC#N)C[C@@H]1[C@@H]2CC[C@]2(C)C(=O)OCC[C@@H]12 [Example 13 (6α), 6α-thiocyanato-D-homo-17-oxaandrosta-1,4-diene-3,17a-dione] | – | 81.3% | – |
| CO[C@@H]1C[C@@H]2[C@H](CC[C@]3(C)C(=O)OCC[C@@H]23)[C@@]2(C)C=CC(=O)C=C12 [Example 31, 6β-methoxy-D-homo-17-oxaandrosta-1,4-diene-3,17a-dione] | – | 100% | – |
| CC(=O)S[C@H]1C[C@@H]2[C@H](CC[C@]3(C)C(=O)OCC[C@@H]23)[C@@]2(C)C=CC(=O)C=C12 [Example 15, 6α-(acetylthio)-D-homo-17-oxaandrosta-1,4-diene-3,17a-dione] | 1600 nM | – | 90.9% |
| CC(=O)S[C@H]1C[C@H]2[C@@H]3CCOC[C@@]3(C)CC[C@@H]2[C@@]2(C)C=CC(=O)C=C12 [Example 19, 6α-(acetylthio)-D-homo-17-oxaandrosta-1,4-dien-3-one] | – | 72.3% | – |
| C[C@]12CC[C@H]3[C@@H](C[C@H](N=[N+]=[N-])C4=CC(=O)C=C[C@@]43C)[C@@H]1CCOC2 [Example 17, 6α-azido-D-homo-17-oxaandrosta-1,4-dien-3-one] | – | 100% | – |
